Patent US12661404B2, “Methods and materials for tissue ablation” (Mayo Foundation for Medical Education and Research, priority 2020, dated 2026)

How the values were obtained:
[1] = tested on: rat liver; settings: solubilized with ICG in 25%-LATTE, injected into rat liver
Description: Time-dependent evaluation of chemotherapy drug diffusion and retention following LATTE injection in rat liver. […] Post necropsy, near-infrared fluorescent scans (NIRF) showing ICG retention at the two injection sites. […] Fluorescent scans visualizing Doxorubicin at the medial location of the same liver.
Intrahepatic injections or LATTE mixtures were performed in Sprague Dawley rats via laparotomy. Anesthetized rats were placed in a supine position on a warming platform. The abdominal hair was removed with an electric shaver and scrubbed to disinfect the skin with triple applications of povidone-iodine alternating with 70% alcohol. […]
To assess differences in ICG or doxorubicin spreading and retention following intrahepatic injections, ex vivo spectral fluorescence imaging was performed on fixed liver tissues using the IVIS 200 system (PerkinElmer, Inc. USA). […] Cross-sectional images were acquired following near-infrared illumination at the excitation wavelength of 750 nm, while fluorescent emission was acquired at 850 nm to visualize indocyanine green (ICG); Doxorubicin was detected at an excitation wavelength of 460 nm and an emission wavelength of 560 nm. […] Fluorescent intensity was quantified in the region of interest (ROI) of each tissue. […]

[2] = tested on: human hepatocellular carcinoma (Hep-G2) cells; assay: cells; settings: HepG2, 24 h, read-out: EC50, fractional viability
Description: HepG2 human liver cancer cell line (ATCC CRL10741; American Type Culture Collection, Manassas, VA, USA) were cultured in 75 cm^2 flasks using growth medium consisting of low glucose Dulbecco's Modified Eagle Medium (DMEM, ThermoFisher) and 10% heat-inactivated bovine serum that was supplemented with 100 IU penicillin and 10 μg/mL streptomycin (Thermo Fisher Scientific). […] The anticancer activity of LATTE on HepG2 was determined using WST-1 reagent (2-(4-Iodophenyl)-3-(4-nitrophenyl)-5-(2,4-disulfophenyl)-2H-tetrazolium sodium) assay as an indication of viability/cytotoxicity treatment. WST-1 viability assay is based on the reduction of tetrazolium salt, WST-1 to an insoluble formazan dye by electron transport across the plasma membrane in viable cells that alter the optical density of the media. […] Cell viability was calculated relative to control wells that received the growth medium alone.
All reported values are the means of three replicate experiments with each study having 8 wells per dose level. Plots of the log concentration versus fractional viability for each drug were generated for each study.

[3] = tested on: renal artery; set-up: species or system swine; settings: in vivo
Description: Healthy Yorkshire pigs (S&S Farms, Brentwood, CA) weighing 48 to 55 kg were acclimatized for at least 4 days under standard feeding conditions and suitable temperature. Pigs were anesthetized using intramuscular injection of 5 mg kg^−1 tiletamine-zolazepam (Telazol, Zoetis), […] xylazine, and 0.02 mg kg^−1 glycopyrrolate. Pigs were then placed in a supine position and intubated on an X-ray compatible operating table (Pannomed Aeron, DRE, KY). Following intubation, anesthesia was maintained with inhalation of 1.5-3% isoflurane. During the procedure, electrocardiogram, transcutaneous oxyhemoglobin saturation (SpO2), end-tidal CO2 concentration, inspired oxygen fraction, and core temperature were monitored. Percutaneous access to the carotid artery was obtained using ultrasound guidance (ACUSON 52000, Siemens) and fluoroscopy (OEC Elite C-Arm, GE Healthcare Systems, Chicago, IL). Access needle and wire were exchanged for a 5 French catheter (Cook Medical). Over a GT-glidewire (Terumo Medical), the tip of the catheter was advanced to the renal using contrast-enhanced fluoroscopy (350 mgI mL-1 Omnipaque, GE HealthCare, MA). […] The radiopacity of NanoGel or NS hydrogel and vessel patency were assessed using digital subtraction angiography. […] At necropsy, the embolized kidneys were explanted for fluorescence imaging and histology.

Compound | doxorubicin retention throughout the affected zone [1] | EC50 [2] [nM] | nivolumab localization (immunohistochemistry) [3]
COc1cccc2c1C(=O)c1c(O)c3c(c(O)c1C2=O)C[C@@](O)(C(=O)CO)C[C@@H]3O[C@H]1C[C@H](N)[C@H](O)[C@H](C)O1 [Doxorubicin] | up to 28 days | 1630 | 
Nivo: immunotherapy agent Nivolumab (an anti PD-1 antibody) |  |  | localized inside the renal artery and in the surrounding area
